From patent US20140024663A1, “ATB(0,+) AMINO ACID TRANSPORTER AS A DRUG TARGET FOR TREATMENT OF ESTROGEN RECEPTOR-POSITIVE BREAST CANCER” (GEORGIA HEALTH SCIENCES UNIVERSITY RESEARCH INSTITUTE, INC., priority 2012, published 2014) come the findings set out here.

Series [1] relates to MCF7 cells. The series is described as follows: ASNS and CHOP mRNA by RT-PCR as readout for amino acid deprivation. The series is classed as cell-based, human. How it is done:
FIGS. 6A to 6C. Effects of SLC6A14 blockade with α-MT in breast cancer cells. In FIG. 6A, MCF10A (a non-malignant mammary epithelial cell line), MCF7 (an ER-positive breast cancer cell line), and MB231 (an ER-negative breast cancer cell line) cells were treated with or without 2.5 mM α-MT for 24, 48, or 72 h and then used for analysis of asparagine synthetase (ASNS) and CHOP mRNA levels. In FIG. 6B, MCF7, MB231 and MCF10A cells were treated with or without 2.5 mM α-MT for 48 h and then used for immunocytochemical analysis of the constitutively expressed LC-3. In FIG. 6C, MCF7 cells were treated with (“b” and “c”) or without (“a”) α-MT (2.5 mM) for 48 h and then used for electron microscopy. Arrows indicate sequestration of cytoplasm and organelles in pre-autophagosomes and autophagosome, and the asterisk indicates condensed chromatin. N, nucleus. FIGS. 8A and 8B. Influence of α-MT on ASNS and CHOP mRNA levels in control MCF7 cells and in MCF7 cells with shRNA-induced silencing of SLC6A14. In FIG. 8A, five different SLC6A14-specific shRNAs were tested in MCF7 cells using a lentivirus-based system to monitor their efficacy to silence SLC6A14. SLC6A14 mRNA levels were measured by RT-PCR with GAPDH as an internal control. c, control. In FIG. 8B, SLC6A14 was silenced in MCF7 cells with shRNA-4 using a lentivirus-based system and then treated without or with α-MT (2.5 mM, 48 h). RNA isolated from the cells was then used for RT-PCR to monitor the levels of asparagine synthetase (ASNS) and CHOP mRNAs. FIG. 11. Estrogen-dependent suppression of the efficacy of α-MT to induce ASNS and CHOP expression in MCF7 cells. MCF7 cells were cultured in a phenol red-free medium in the absence or presence of estradiol (E2, 10 nM) for 24 h and then treated without or with α-MT (2.5 mM, 24 h). The cells were then used for analysis of SLC6A14, asparagine synthetase (ASNS), and CHOP mRNA levels by RT-PCR. Hypoxanthine/guanine phosphoribosyltransferase-1 (HPRT1) mRNA levels were used as an internal control. RT-PCR. Total RNA was isolated using TRIZOL™ (Invitrogen). 2 μg of RNA was reverse transcribed using the GeneAmp PCR System (Applied Biosystems, Branchburg, N.J.). PCR reaction was performed under optimal conditions specific for each of the primer pairs. GAPDH (glyceraldehyde-3-phosphate dehydrogenase) or HPRT1 (hypoxanthine/guanine phosphoribosyl transferase-1) were used as internal controls. PCR products were size-fractionated on agarose gel, stained with ethidium bromide and imaged using Alpha Imager (Santa Clara, Calif.). Densitometry was performed on PCR bands and normalized to the internal control. Normalized values were used to compare mRNA levels of target genes. Primers used for PCR were as follows.

For series [2], the system named is MB231 cells. Briefly: Analysis of autophagy (LC3 localization). The series is classed as cell-based, human. Conditions: MB231, α-MT 2.5 mM, 48 h. How it is done: FIGS. 6A to 6C. Effects of SLC6A14 blockade with α-MT in breast cancer cells. In FIG. 6A, MCF10A (a non-malignant mammary epithelial cell line), MCF7 (an ER-positive breast cancer cell line), and MB231 (an ER-negative breast cancer cell line) cells were treated with or without 2.5 mM α-MT for 24, 48, or 72 h and then used for analysis of asparagine synthetase (ASNS) and CHOP mRNA levels. In FIG. 6B, MCF7, MB231 and MCF10A cells were treated with or without 2.5 mM α-MT for 48 h and then used for immunocytochemical analysis of the constitutively expressed LC-3. In FIG. 6C, MCF7 cells were treated with (“b” and “c”) or without (“a”) α-MT (2.5 mM) for 48 h and then used for electron microscopy. […]
Analysis of autophagy. Autophagy was analyzed as described previously (Periyasamy-Thandavan et al., 2010, Autophagy; 6:19-35; and Samaddar et al., 2008, Mol Cancer Ther; 7:2977-2987) by monitoring the localization pattern of constitutively expressed LC3 as well as that of ectopically expressed GFP-LC3. […] At the end of the treatment, cells were fixed with 4% paraformaldehyde and examined by fluorescence microscopy to count the number of cells with punctate GFP-LC3. Autophagosomal proteolysis was quantified as described previously (Periyasamy-Thandavan et al., 2010, Autophagy; 6:19-35). […]

A short description of series [3]: Measurement of α-MT in mouse plasma by HPLC. The series is classed as in vivo, Balb/c nude mice. Conditions: mice, two weeks of administration in drinking water (2 mg/ml). The method, then:
FIGS. 10A to 10D. In vivo efficacy of α-MT in the treatment of ER-positive breast cancer. ZR75.1 (FIG. 10A), MCF7 (FIG. 10B), and MB-231 (FIG. 10C) cells were injected subcutaneously (sc) into Balb/c nude mice (10×10^6 cells per injection site). For MCF7 cells, slow-releasing estrogen pellets were implanted to support the tumor growth. For each cell line, the control group received water with sucrose and the treatment group received α-MT (2 mg/ml) in water with sucrose. Tumor size was measured periodically. NS, not statistically significant (p>0.05); *, p<0.005; two-tailed unpaired Student's t test. In FIG. 10D, Balb/c nude mice were divided into two groups; the control group received water with sucrose and the treatment group received α-MT (2 mg/ml) in water with sucrose for 2 weeks. Mice were then bled and α-MT in plasma was determined by HPLC.
Measurement of α-MT in mouse plasma. Balb/c nude mice were divided into two groups; the control group received water with sucrose and the treatment group received α-MT (2 mg/ml) in water with sucrose for 2 weeks. Mice were then bled and α-MT in plasma was determined by HPLC as described by Laich et al (Laich et al., 2002, Clin Chem; 48:579-581).

Turning to `CC(N)(Cc1c[nH]c2ccccc12)C(=O)O` (racemic) [α-MT, α-methyl-DL-tryptophan], the “levels of asparagine synthetase mRNA and CHOP mRNA” value in series [1] (MCF7, α-MT 2.5 mM, 24, 48 or 72 h) is listed as “increased”. The “α-MT-induced increase of asparagine synthetase and CHOP expression” value in series [1] (MCF7 cells transfected with vector carrying shRNA #4 (SLC6A14 silenced), α-MT 2.5 mM, 48 h) is “markedly attenuated”. The “magnitude of α-MT-induced asparagine synthetase and CHOP expression” value in series [1] (MCF7 cells treated with estradiol 10 nM, phenol red-free medium, α-MT 2.5 mM, 24 h) is listed as “significantly reduced”. In addition, in series [1] (MCF7 control cells transfected with empty vector, α-MT 2.5 mM, 48 h), the “expression levels of asparagine synthetase and CHOP” value is on record as “increased”. Further, the “expression of asparagine synthetase and CHOP” value in series [1] (MCF7 control cells, phenol red-free medium, absence of estradiol, α-MT 2.5 mM, 24 h) is on record as “induced the expression”. The “autophagy (LC3 localization)” value in series [2] is given as “did not undergo autophagy”. In addition, the plasma concentration of α-MT in series [3] stood at 8.5 ± 0.5 µM.
